Read-outs that look alike come from different tables or passages of the source. Some results are limits rather than exact numbers.

The subject of experiment [1] is gastric mucosa cell (GES-1). Kind of experiment: Proliferative inhibition assay of human normal cell GES-1 (MTT). It counts as cell-based. The protocol:
(§1) The antiproliferative activities evaluation was conducted by using a modified procedure as described in the literature. Briefly, target tumour cells were grown to log phase in RPMI 1640 medium supplemented with 10% fetal bovine serum. After diluting to 3 × 10^4 cells mL^−1 with the complete medium, 100 µL of the obtained cell suspension was added to each well of 96-well culture plates. The subsequent incubation was performed at 37 °C, 5% CO2 atmosphere for 24 h before subjecting to antiproliferation assessment. The tested samples at pre-set concentrations were added to six wells with Doxorubicin (AMD) co-assayed as a positive reference. After 48 h of exposure period, 25 µL of PBS containing 2.5 mg·mL^−1 of MTT was added to each well. After 4 h, the medium was replaced by 150 µL DMSO to dissolve the purple formazan crystals produced. The absorbance at 570 nm of each well was measured using an ELISA plate reader. The data represented the mean of three experiments in triplicate and were expressed as means ± SD using Student’s test.
(§2) In order to determine the selective cancer cell toxicity of some title compounds. We subsequently conducted a proliferative inhibition assay with human normal liver cell (L-02) and gastric mucosa cell (GES-1).

The test system of experiment [2] is human melanoma cell A375. Briefly: Cell proliferation (MTT) assay, A375. It counts as cell-based. The method, then: as §1
Experiment [3] concerns human hepatoma cell SMMC-7721. Kind of experiment: Cell proliferation (MTT) assay, SMMC-7721. Format: cell-based. The following applies: Homo sapiens, SMMC-7721, 48 h, read-out: IC50 SMMC-7721. The protocol: as §1
The test system of experiment [4] is human normal liver cell (L-02). Briefly: Proliferative inhibition assay of human normal cell L-02 (MTT). It counts as cell-based. The following applies: normal liver cells. The method, then: as §1, §2
The target in experiment [5] is T1, telomerase (Homo sapiens, UniProt O14746).
T1 construct: endogenous in cells; host or cells: A375 human melanoma cells
T1 sequence (O14746 whole entry): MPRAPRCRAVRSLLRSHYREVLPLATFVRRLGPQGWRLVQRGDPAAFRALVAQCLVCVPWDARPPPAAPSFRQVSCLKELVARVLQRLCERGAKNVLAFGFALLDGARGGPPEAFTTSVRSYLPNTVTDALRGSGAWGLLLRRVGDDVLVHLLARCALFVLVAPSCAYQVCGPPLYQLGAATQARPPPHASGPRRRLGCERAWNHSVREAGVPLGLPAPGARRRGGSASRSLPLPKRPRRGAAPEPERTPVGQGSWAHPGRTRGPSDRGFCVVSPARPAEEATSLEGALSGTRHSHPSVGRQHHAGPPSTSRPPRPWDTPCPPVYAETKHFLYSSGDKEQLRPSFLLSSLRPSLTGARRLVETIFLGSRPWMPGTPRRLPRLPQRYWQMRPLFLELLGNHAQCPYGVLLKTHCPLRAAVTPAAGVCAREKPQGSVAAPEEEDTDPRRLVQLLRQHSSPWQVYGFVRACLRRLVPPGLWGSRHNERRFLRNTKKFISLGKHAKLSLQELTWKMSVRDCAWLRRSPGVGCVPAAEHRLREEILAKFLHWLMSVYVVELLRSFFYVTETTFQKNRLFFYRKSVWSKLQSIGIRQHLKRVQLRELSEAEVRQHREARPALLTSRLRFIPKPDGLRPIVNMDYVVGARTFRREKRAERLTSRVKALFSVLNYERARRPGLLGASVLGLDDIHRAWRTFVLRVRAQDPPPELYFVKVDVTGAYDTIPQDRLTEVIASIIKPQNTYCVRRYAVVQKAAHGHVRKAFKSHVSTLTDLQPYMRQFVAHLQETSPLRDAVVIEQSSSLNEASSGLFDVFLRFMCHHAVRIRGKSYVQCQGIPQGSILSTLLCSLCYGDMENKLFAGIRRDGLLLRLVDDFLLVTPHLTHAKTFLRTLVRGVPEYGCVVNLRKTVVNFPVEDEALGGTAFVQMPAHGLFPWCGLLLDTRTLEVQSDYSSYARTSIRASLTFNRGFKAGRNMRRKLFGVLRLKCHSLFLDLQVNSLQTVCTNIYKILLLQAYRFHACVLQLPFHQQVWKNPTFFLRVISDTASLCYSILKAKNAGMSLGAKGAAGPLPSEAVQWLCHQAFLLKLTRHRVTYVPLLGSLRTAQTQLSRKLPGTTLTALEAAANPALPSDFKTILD
Kind of experiment: Telomerase activity TRAP-PCR-ELISA assay (A375 cell extract). It counts as biochemical. The protocol:
Thirty-six compounds were tested in a search for inhibitors of telomerase activity using the TRAP-PCR-ELISA assay. In detail, the A375 cells were firstly maintained in RPMI 1640 buffer (Hyclone, Miami, FL), supplemented with 10% fetal bovineserum (GIBCO, New York, NY), streptomycin (0.1 mg/mL) and penicillin (100 IU/mL) at 37 °C in a humidified atmosphere containing 5% CO2. After trypsinisation, 5 × 10^4 cultured cells in logarithmic growth were seeded into T25 flasks (Corning, New York, NY) and cultured to allow to adherence. […] After 24 h treatment, the cells were harvested by cell scraper orderly followed by washing once with PBS. The cells were lysed in 150 µL RIPA cell lysis buffer (Santa Cruz, Santa Cruz, CA), and incubated on ice for 30 min. The cellular supernatants were obtained via centrifugation at 12,000g for 20 min at 4 °C and stored at –80 °C. The TRAP-PCR-ELISA assay was performed using a telomerase detection kit (Roche, Basel, Switzerland) according to the manufacturer’s protocol. In brief, 2 µL of cell extracts were mixed with 48 µL TRAP reaction mixtures. TRAP primers and Taq polymerase are incubated at 25 °C for 30 min. PCR was then initiated at 94 °C, 120 s for predenaturation and performed using 35 cycles each consisting of 94 °C for 30 s, 50 °C for 30 s, 72 °C for 90 s. Then 20 µL of PCR products were hybridised to a digoxigenin (DIG)-labelled telomeric repeat specific detection probe. And the PCR products were immobilised via the biotin-labelled primer to a streptavidin-coated microtiter plate subsequently. The immobilised DNA fragments were detected with a peroxidase-conjugated anti-DIG antibody and visualised following the addition of the stop regent. The microtitre plate was assessed on TECAN Infinite M200 microplate reader (Mannedorf, Switzerland) at a wavelength of 490 nm, and the final value were presented as mean ± SD[23].

Experiment [6] deals with human gastric cancer cells SGC-7901. Kind of experiment: Cell proliferation (MTT) assay, SGC-7901. The following applies: Homo sapiens, SGC-7901, 48 h, read-out: IC50 SGC-7901. It counts as cell-based. The protocol: as §1
Experiment [7] relates to human breast cancer cell MDA-MB-231. Kind of experiment: Cell proliferation (MTT) assay, MDA-MB-231. It counts as cell-based. The following applies: Homo sapiens, MDA-MB-231, 48 h, read-out: IC50 MDA-MB-231, antiproliferative, MTT, 48 h exposure. The protocol: as §1
Experiment [8] deals with human gastric cancer cells MGC-803. Briefly: Cell proliferation (MTT) assay, MGC-803. Format: cell-based. The following applies: Homo sapiens, MGC-803, 48 h, read-out: IC50 MGC-803. The method, then: as §1
[9] abbreviates: Homo sapiens, GES1, normal gastric mucosa cells.
[10] abbreviates: Homo sapiens, A-375, 48 h, read-out: IC50 A375, antiproliferative, MTT, 48 h exposure.
Setting [11] is: IC50 inhibitory activity against telomerase, TRAP-PCR-ELISA, A375 cells, 24 h treatment.
The mark [12] stands for this setting: read-out: IC50 A375, antiproliferative, MTT, 48 h exposure.

Consider `Cc1ccc(S(=O)(=O)n2c3ccccc3c3cc(/C=C/S(=O)(=O)F)ccc32)cc1` [Compound 46], for which the IC50 came out at 1.82 ± 0.11 mM in experiment [1] (setting [9]); 1.25 ± 0.07 µM in experiment [2] (setting [10]); 5.37 ± 0.11 µM in experiment [3]; 2.06 ± 0.18 mM in experiment [4] (Homo sapiens); 1120 ± 270 nM in experiment [5] (read-out: IC50 inhibitory activity against telomerase, TRAP-PCR-ELISA, A375 cells, 24 h treatment).

Consider `O=S(=O)(F)/C=C/c1cccc(-c2ccccc2)c1` [Compound 75], for which the IC50 was found to be 1.89 ± 0.17 mM in experiment [1] (setting [9]); 9.27 ± 0.91 µM in experiment [2] (setting [10]); 32.1 ± 1.02 µM in experiment [3]; 21.9 ± 0.61 µM in experiment [6]; 2.44 ± 0.22 mM in experiment [4] (Homo sapiens); 21.3 ± 1.04 µM in experiment [7]. Also, the IC50 in experiment [5] (setting [11]) came out at 4400 ± 2000 nM.

As to `O=S(=O)(F)/C=C/c1ccc2ccccc2c1` [Compound 31], the IC50 in experiment [1] (setting [9]) is 1.65 ± 0.18 mM; in experiment [2] (setting [10]), around 3 µM; in experiment [2] (setting [12]) it was 3.49 ± 0.2 µM; in experiment [3] it was 33.5 ± 0.88 µM; in experiment [4] (Homo sapiens), 1.41 ± 0.1 mM; in experiment [7], 24.1 ± 1.18 µM. The compound also registered a concentration for half-maximal inhibition (IC50) in experiment [5] (setting [11]) of 810 ± 70 nM.

Turning to `CC(=O)c1ccccc1/C=C/S(=O)(=O)F` [Compound 25], the values for the IC50 in experiment [1] (setting [9]) and in experiment [4] (Homo sapiens) were 2.8 ± 0.31 mM and 2.45 ± 0.25 mM, respectively. Further, the “IC50 inhibitory activity against telomerase” value in experiment [5] (TRAP-PCR-ELISA, A375 cells, 24 h treatment) is on record as “no”.

Turning to `O=S(=O)(F)/C=C/c1ccccc1` [Compound 1], the IC50 is 1.45 ± 0.17 mM in experiment [1] (setting [9]); 5.21 ± 0.39 µM in experiment [2] (setting [10]); 1.97 ± 0.2 mM in experiment [4] (Homo sapiens); 8.67 ± 0.61 µM in experiment [7]; 2410 ± 510 nM in experiment [5] (setting [11]).

Consider `O=S(=O)(F)/C=C/c1ccc(-c2ccccc2)cc1` [Compound 5], for which the concentration for half-maximal inhibition (IC50) in experiment [1] (setting [9]) was 2 ± 0.25 mM; in experiment [2] (setting [10]), 5.84 ± 0.33 µM; in experiment [3] it was 4.05 ± 0.2 µM; in experiment [6], 32.9 ± 1.85 µM; in experiment [4] (Homo sapiens), 1.33 ± 0.15 mM; in experiment [7], 8.39 ± 0.89 µM. Further, the IC50 in experiment [5] (setting [11]) was determined as 710 ± 280 nM. Moreover, the “telomerase potency relative to positive control staurosporine” value in experiment [5] (ratio of telomerase IC50 values vs staurosporine) was 12 times.

`O=S(=O)(F)/C=C/c1cccc(/C=C/S(=O)(=O)F)c1` [Compound 70]: the IC50 in experiment [2] (setting [10]) is around 3 µM; in experiment [2] (setting [12]) it was 3.09 ± 0.19 µM; in experiment [3], 3 ± 0.18 µM; in experiment [8] it was 3.15 ± 0.27 µM; in experiment [6] it was 5.38 ± 0.3 µM; in experiment [7] it was 4.22 ± 0.2 µM. In addition, in experiment [5] (setting [11]), the IC50 worked out at 1010 ± 130 nM.

Take `O=S(=O)(F)/C=C/C=C/c1ccc(/C=C/S(=O)(=O)F)cc1` [Compound 57, (1E,3E)-4-(4-((E)-2-(fluorosulfonyl)vinyl)phenyl)buta-1,3-diene-1-sulfonyl fluoride]: the IC50 was below 2 mM in experiment [1] (setting [9]); 2.19 ± 0.18 mM in experiment [1] (normal gastric mucosa cells); around 3 µM in experiment [2] (setting [10]); 1.58 ± 0.06 µM in experiment [2] (setting [12]); below 2 mM in experiment [4] (Homo sapiens); 2.01 ± 0.16 mM in experiment [4]. The IC50 amounted to 3.22 ± 0.18 µM in experiment [7] and 970 ± 120 nM in experiment [5] (setting [11]).

With `O=Cc1ccc(/C=C/S(=O)(=O)F)cc1` [Compound 15], the half-maximal inhibitory concentration (IC50) in experiment [1] (setting [9]) came to 2.5 ± 0.22 mM; in experiment [2] (setting [10]), 13.1 ± 0.7 µM; in experiment [4] (Homo sapiens), 2.11 ± 0.19 mM; in experiment [7], 3.64 ± 0.22 µM; in experiment [5] (setting [11]), 1870 ± 410 nM.

Values taken from PMC6116703, “Ethenesulfonyl fluoride derivatives as telomerase inhibitors: structure-based design, SAR, and anticancer evaluation in vitro” (Journal of Enzyme Inhibition and Medicinal Chemistry, 2018).
